Patent publication US12350259B2, “Methods of treating migraine” (Allergan Pharmaceuticals International Limited, priority 2021, dated 2025)
Like-named read-outs stand apart in the source and are kept apart here.

What was measured:
[1] = Atogepant-itraconazole interaction study: safety and tolerability; type: in vivo, human
Excerpt: The primary objective of this study was to assess the effects of multiple dose itraconazole on the pharmacokinetics of a single dose of atogepant. The primary endpoints were PK parameters of atogepant derived from plasma concentrations. The secondary objectives of the study were to assess the safety and tolerability of atogepant and itraconazole given alone and in combination, and to establish the correlation between concentrations of atogepant in dried blood sample (DBS) (obtained via finger stick) and plasma. The secondary endpoints included AEs, clinical laboratory parameters, vital signs, ECG, and physical examination, and correlation of concentrations of atogepant in DBS and plasma. Subjects who satisfied the inclusion and exclusion criteria were assigned to a single fixed-treatment sequence in which they received Treatment A followed by Treatment B; there was a 7-day washout period between treatments. • Treatment A: Single oral 60 mg dose of atogepant (tablet) under fasted conditions on Day 1 • Treatment B • Days 8-14: Itraconazole 200 mg (tablet) orally once daily under fed conditions. • Day 15: Itraconazole 200 mg coadministered with atogepant 60 mg (tablet) under fasted conditions. • Days 16 to 17: Itraconazole 200 mg (tablet) once daily under fed conditions.

[2] = tested on: patients with episodic migraine; experiment: Study 1 (NCT03777059): preventive treatment of episodic migraine, efficacy; type: in vivo, human
Method: The studies enrolled patients with at least a 1-year history of migraine with or without aura, according to the International Classification of Headache Disorders (ICHD-3) diagnostic criteria. In Study 1 (NCT03777059), 910 patients were randomized 1:1:1:1 to receive atogepant 10 mg (N=222), atogepant 30 mg (N=230), atogepant 60 mg (N=235), or placebo (N=223), once daily for 12 weeks. In Study 2 (NCT02848326), 652 patients were randomized 1:2:2:2 to receive atogepant 10 mg (N=94), atogepant 30 mg (N=185), atogepant 60 mg (N=187), or placebo (N=186), once daily for 12 weeks. In both studies, patients were allowed to use acute headache treatments (i.e., triptans, ergotamine derivatives, NSAIDs, acetaminophen, and opioids) as needed. The use of a concomitant medication that acts on the CGRP pathway was not permitted for either acute or preventive treatment of migraine. The studies excluded patients with myocardial infarction, stroke, or transient ischemic attacks within six months prior to screening. The primary efficacy endpoint was the change from baseline in mean monthly migraine days (MMD) across the 12-week treatment period. Secondary endpoints included the change from baseline in mean monthly headache days, the change from baseline in mean monthly acute medication use days, the proportion of patients achieving at least a 50% reduction from baseline in mean MMD (3-month average), the change from baseline in mean monthly Activity Impairment in Migraine-Diary (AIM-D) Performance of Daily Activities (PDA) domain scores, the change from baseline in mean monthly AIM-D Physical Impairment (PI) domain scores, across the 12 week treatment period, and the change from baseline at Week 12 for Migraine Specific Quality of Life Questionnaire version 2.1 (MSQ v2.1) Role Function-Restrictive (RFR) domain scores. The AIM-D evaluates difficulty with performance of daily activities (PDA domain) and physical impairment (PI domain) due to migraine, with scores ranging from 0 to 100. Higher scores indicate greater impact of migraine, and reductions from baseline indicate improvement. The MSQ v2.1 Role Function-Restrictive (RFR) domain score assesses how often migraine impacts function related to daily social and work-related activities over the past 4 weeks, with scores ranging from 0 to 100. Higher scores indicate lesser impact of migraine on daily activities, and increases from baseline indicate improvement.

[3] = molecular target: CYP1A2 (Homo sapiens, UniProt P05177); experiment: In vitro CYP inhibition; type: in vitro ADME; settings: clinically relevant concentrations
Chain of CYP1A2 (Homo sapiens, UniProt P05177) (P05177 whole entry): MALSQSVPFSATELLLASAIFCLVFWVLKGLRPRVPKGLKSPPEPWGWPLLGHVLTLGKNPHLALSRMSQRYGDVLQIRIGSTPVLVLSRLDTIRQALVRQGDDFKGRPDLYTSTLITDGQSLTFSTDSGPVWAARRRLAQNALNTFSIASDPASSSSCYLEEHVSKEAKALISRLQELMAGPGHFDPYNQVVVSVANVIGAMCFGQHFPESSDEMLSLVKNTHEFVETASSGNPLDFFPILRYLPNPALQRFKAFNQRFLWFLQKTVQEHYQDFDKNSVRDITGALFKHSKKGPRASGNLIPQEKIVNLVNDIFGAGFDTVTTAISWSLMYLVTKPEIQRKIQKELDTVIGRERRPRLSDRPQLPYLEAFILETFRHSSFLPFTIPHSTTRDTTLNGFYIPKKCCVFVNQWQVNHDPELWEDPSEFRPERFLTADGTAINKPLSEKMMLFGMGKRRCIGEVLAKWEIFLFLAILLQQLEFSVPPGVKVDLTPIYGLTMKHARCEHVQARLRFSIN

[4] = tested on: CYP1A2; experiment: CYP induction; type: in vitro ADME; settings: clinically relevant concentrations
[5] = molecular target: OAT3 (Homo sapiens, UniProt Q8TCC7); experiment: Transporter inhibition; type: in vitro ADME; settings: clinically relevant concentrations
Chain of OAT3 (Q8TCC7 whole entry): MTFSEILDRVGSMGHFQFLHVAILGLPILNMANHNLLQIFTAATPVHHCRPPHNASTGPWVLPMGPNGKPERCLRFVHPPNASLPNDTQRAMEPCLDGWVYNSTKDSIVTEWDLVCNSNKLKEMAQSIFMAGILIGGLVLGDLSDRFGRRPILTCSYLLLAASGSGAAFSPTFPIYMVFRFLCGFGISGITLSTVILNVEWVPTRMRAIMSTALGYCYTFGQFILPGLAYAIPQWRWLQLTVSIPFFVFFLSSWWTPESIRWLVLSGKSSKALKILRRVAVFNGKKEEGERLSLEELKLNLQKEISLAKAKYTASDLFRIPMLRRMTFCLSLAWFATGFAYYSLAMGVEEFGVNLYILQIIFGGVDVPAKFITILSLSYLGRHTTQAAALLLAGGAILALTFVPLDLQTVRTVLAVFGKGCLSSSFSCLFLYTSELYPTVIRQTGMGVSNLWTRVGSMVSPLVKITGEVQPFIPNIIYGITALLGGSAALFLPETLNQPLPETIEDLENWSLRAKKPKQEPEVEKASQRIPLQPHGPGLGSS

[6] = molecular target: MRP3 (Homo sapiens, UniProt O15438); experiment: Transporter inhibition; type: in vitro ADME; settings: clinically relevant concentrations
Chain of MRP3 (O15438 whole entry): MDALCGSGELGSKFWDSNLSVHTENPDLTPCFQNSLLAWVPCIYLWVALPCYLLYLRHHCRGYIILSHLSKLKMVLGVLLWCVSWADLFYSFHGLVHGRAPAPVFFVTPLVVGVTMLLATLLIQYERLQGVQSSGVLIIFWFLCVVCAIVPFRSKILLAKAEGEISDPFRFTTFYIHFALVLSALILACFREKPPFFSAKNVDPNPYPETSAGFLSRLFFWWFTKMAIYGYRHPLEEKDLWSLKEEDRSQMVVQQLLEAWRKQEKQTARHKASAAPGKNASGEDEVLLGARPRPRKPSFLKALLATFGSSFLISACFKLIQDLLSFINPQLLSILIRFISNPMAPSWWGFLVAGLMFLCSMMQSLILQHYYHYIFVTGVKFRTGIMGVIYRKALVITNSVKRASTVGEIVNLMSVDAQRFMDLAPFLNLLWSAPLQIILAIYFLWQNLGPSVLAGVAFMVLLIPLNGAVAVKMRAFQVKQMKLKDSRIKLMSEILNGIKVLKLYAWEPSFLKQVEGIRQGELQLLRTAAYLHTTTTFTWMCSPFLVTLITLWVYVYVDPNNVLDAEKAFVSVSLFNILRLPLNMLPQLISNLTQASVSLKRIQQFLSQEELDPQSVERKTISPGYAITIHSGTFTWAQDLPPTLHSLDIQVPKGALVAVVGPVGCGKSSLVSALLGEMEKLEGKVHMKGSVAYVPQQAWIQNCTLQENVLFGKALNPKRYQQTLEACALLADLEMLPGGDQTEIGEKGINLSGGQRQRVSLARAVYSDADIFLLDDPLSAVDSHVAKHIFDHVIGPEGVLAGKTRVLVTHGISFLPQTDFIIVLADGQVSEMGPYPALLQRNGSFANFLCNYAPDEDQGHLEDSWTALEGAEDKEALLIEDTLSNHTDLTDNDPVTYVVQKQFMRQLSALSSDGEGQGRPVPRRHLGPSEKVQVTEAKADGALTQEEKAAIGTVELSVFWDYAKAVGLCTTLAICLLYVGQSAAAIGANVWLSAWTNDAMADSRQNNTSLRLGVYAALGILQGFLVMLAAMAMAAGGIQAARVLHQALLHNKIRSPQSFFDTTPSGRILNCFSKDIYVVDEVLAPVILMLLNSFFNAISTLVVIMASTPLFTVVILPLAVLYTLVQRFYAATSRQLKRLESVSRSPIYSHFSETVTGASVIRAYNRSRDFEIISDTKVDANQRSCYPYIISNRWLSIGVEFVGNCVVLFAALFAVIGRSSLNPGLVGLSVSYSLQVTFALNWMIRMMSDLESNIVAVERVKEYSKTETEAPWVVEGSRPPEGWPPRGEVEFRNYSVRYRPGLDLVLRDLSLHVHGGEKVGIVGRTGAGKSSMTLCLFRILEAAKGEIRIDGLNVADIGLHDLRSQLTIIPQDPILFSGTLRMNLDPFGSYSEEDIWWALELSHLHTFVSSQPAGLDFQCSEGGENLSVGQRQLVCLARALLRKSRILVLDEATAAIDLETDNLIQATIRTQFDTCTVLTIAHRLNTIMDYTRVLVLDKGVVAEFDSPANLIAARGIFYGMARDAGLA

[7] = molecular target: MRP4 (Homo sapiens, UniProt O15439); experiment: Transporter inhibition; type: in vitro ADME; settings: clinically relevant concentrations
Chain of MRP4 (O15439 whole entry): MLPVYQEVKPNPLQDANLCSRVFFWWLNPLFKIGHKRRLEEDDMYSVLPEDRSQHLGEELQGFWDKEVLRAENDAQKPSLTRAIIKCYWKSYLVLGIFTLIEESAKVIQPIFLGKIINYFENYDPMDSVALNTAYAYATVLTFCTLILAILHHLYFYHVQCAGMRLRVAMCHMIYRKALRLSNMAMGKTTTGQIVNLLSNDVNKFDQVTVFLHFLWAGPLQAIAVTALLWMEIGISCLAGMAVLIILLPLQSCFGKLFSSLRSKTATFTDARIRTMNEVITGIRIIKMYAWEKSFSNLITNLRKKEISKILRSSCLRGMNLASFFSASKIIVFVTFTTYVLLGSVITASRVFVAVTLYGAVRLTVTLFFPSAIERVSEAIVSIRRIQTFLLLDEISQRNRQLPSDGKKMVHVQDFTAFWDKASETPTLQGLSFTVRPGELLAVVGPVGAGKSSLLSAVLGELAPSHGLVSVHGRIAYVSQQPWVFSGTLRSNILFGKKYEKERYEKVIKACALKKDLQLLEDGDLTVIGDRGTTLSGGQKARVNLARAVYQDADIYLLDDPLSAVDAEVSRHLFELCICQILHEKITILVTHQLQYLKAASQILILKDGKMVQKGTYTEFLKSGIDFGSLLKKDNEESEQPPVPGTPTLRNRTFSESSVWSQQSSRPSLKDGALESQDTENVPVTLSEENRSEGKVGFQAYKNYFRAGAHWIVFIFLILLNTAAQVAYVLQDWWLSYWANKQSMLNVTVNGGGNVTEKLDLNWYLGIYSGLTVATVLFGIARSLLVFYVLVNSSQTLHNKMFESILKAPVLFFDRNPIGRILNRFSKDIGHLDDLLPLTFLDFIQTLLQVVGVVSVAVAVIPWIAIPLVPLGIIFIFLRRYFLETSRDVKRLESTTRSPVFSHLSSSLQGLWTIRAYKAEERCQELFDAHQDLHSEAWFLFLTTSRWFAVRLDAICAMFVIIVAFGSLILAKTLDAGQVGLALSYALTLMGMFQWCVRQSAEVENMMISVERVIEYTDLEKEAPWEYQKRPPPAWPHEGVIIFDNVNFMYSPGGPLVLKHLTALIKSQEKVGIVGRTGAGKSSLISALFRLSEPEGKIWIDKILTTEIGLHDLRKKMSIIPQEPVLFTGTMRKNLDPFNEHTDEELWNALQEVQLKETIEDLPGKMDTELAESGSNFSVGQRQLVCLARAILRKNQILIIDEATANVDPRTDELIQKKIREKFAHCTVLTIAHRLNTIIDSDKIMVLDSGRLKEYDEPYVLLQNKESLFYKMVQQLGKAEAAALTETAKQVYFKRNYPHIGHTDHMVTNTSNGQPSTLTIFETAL

[8] = Study 1, atogepant 10 mg once daily
[9] = Study 1, atogepant 30 mg once daily
[10] = Study 1, atogepant 60 mg once daily
[11] = All participants (N = 32), Treatments A, B1, B2
[12] = Treatment A: atogepant 60 mg alone (N = 32)
[13] = Treatment B1: atogepant 60 mg + rifampin 600 mg Day 7, rifampin Days 8-11 (N = 31)
[14] = Treatment B2: atogepant 60 mg + rifampin 600 mg Day 12, rifampin Day 13 (N = 31)
[15] = after Treatment B1 (atogepant + rifampin)
[16] = during the study, all treatments
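Wherever Deaths is given: safety population of participants given at least one dose, adverse events recorded through clinical assessment across the whole study.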
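Wherever TEAE leading to treatment discontinuation is given: safety population of participants given at least one dose, adverse events recorded through clinical assessment across the whole study.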
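Wherever Treatment-Emergent Serious Adverse Events (TESAE) is given: safety population of participants given at least one dose, adverse events recorded through clinical assessment across the whole study.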
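Wherever Treatment-emergent adverse events (TEAE) is given: safety population of participants given at least one dose, adverse events recorded through clinical assessment across the whole study.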

SMILES: C[C@@H]1[C@H](c2c(F)ccc(F)c2F)C[C@H](NC(=O)c2cnc3c(c2)C[C@@]2(C3)C(=O)Nc3ncccc32)C(=O)N1CC(F)(F)F [atogepant, (3′S)-N-[(3S,5S,6R)-6-methyl-2-oxo-1-(2,2,2-trifluoroethyl)-5-(2,3,6-trifluorophenyl)piperidin-3-yl]-2′-oxo-1′,2′,5,7-tetrahydrospiro[cyclopenta[b]pyridine-6,3′-pyrrolo[2,3-b]pyridine]-3-carboxamide]
- subjects experiencing dizziness (TEAE) ([1]; atogepant alone): 2 subjects
- tolerability ([1]; each treatment (atogepant alone, itraconazole, combination)): well-tolerated
- AIM-D PDA Domain across 12 weeks, difference from placebo [2, 8]: −1.2
- AIM-D PDA Domain across 12 weeks, mean change from baseline [2, 8]: −7.3
- AIM-D PI Domain across 12 weeks, difference from placebo [2, 8]: −1.1
- AIM-D PI Domain across 12 weeks, mean change from baseline [2, 8]: −5.1
- MSQ v2.1 RFR Domain at week 12, difference from placebo [2, 8]: 9.9
- MSQ v2.1 RFR Domain at week 12, mean change from baseline [2, 8]: 30.4
- Monthly Acute Medication Use Days across 12 weeks, difference from placebo [2, 8]: −1.3
- Monthly Acute Medication Use Days across 12 weeks, mean change from baseline [2, 8]: −3.7
- Monthly Headache Days across 12 weeks, difference from placebo [2, 8]: −1.4
- Monthly Headache Days across 12 weeks, mean change from baseline [2, 8]: −3.9
- Monthly Migraine Days (MMD) across 12 weeks, difference from placebo [2, 8]: −1.2
- Monthly Migraine Days (MMD) across 12 weeks, mean change from baseline [2, 8]: −3.7
- ≥50% MMD Responders across 12 weeks, % Responders [2, 8]: 56%
- ≥50% MMD Responders across 12 weeks, difference from placebo [2, 8]: 27%
- AIM-D PDA Domain across 12 weeks, difference from placebo [2, 9]: −2.5
- AIM-D PDA Domain across 12 weeks, mean change from baseline [2, 9]: −8.6
- AIM-D PI Domain across 12 weeks, difference from placebo [2, 9]: −2.0
- AIM-D PI Domain across 12 weeks, mean change from baseline [2, 9]: −6.0
- MSQ v2.1 RFR Domain at week 12, difference from placebo [2, 9]: 10.1
- MSQ v2.1 RFR Domain at week 12, mean change from baseline [2, 9]: 30.5
- Monthly Acute Medication Use Days across 12 weeks, difference from placebo [2, 9]: −1.3
- Monthly Acute Medication Use Days across 12 weeks, mean change from baseline [2, 9]: −3.7
- Monthly Headache Days across 12 weeks, difference from placebo [2, 9]: −1.5
- Monthly Headache Days across 12 weeks, mean change from baseline [2, 9]: −4.0
- Monthly Migraine Days (MMD) across 12 weeks, difference from placebo [2, 9]: −1.4
- Monthly Migraine Days (MMD) across 12 weeks, mean change from baseline [2, 9]: −3.9
- ≥50% MMD Responders across 12 weeks, % Responders [2, 9]: 59%
- ≥50% MMD Responders across 12 weeks, difference from placebo [2, 9]: 30%
- AIM-D PDA Domain across 12 weeks, difference from placebo [2, 10]: −3.3
- AIM-D PDA Domain across 12 weeks, mean change from baseline [2, 10]: −9.4
- AIM-D PI Domain across 12 weeks, difference from placebo [2, 10]: −2.5
- AIM-D PI Domain across 12 weeks, mean change from baseline [2, 10]: −6.5
- MSQ v2.1 RFR Domain at week 12, difference from placebo [2, 10]: 10.8
- MSQ v2.1 RFR Domain at week 12, mean change from baseline [2, 10]: 31.3
- Monthly Acute Medication Use Days across 12 weeks, difference from placebo [2, 10]: −1.5
- Monthly Acute Medication Use Days across 12 weeks, mean change from baseline [2, 10]: −3.9
- Monthly Headache Days across 12 weeks, difference from placebo [2, 10]: −1.7
- Monthly Headache Days across 12 weeks, mean change from baseline [2, 10]: −4.2
- Monthly Migraine Days (MMD) across 12 weeks, difference from placebo [2, 10]: −1.7
- Monthly Migraine Days (MMD) across 12 weeks, mean change from baseline [2, 10]: −4.2
- ≥50% MMD Responders across 12 weeks, % Responders [2, 10]: 61%
- ≥50% MMD Responders across 12 weeks, difference from placebo [2, 10]: 32%
- inhibition of CYP1A2 [3]: not an inhibitor
- induction of CYP1A2 [4]: not an inducer
- inhibition of OAT3 [5]: not an inhibitor
- inhibition of MRP3 [6]: not an inhibitor
- inhibition of MRP4 [7]: not an inhibitor
- Deaths [11]: 0 n (%)
- TEAE leading to treatment discontinuation [11]: 0 n (%)
- Treatment-Emergent Serious Adverse Events (TESAE) [11]: 0 n (%)
- Treatment-emergent adverse events (TEAE) [11]: 11 (34.4) n (%)
- Deaths [12]: 0 n (%)
- TEAE leading to treatment discontinuation [12]: 0 n (%)
- Treatment-Emergent Serious Adverse Events (TESAE) [12]: 0 n (%)
- Treatment-emergent adverse events (TEAE) [12]: 0 n (%)
- Deaths [13]: 0 n (%)
- TEAE leading to treatment discontinuation [13]: 0 n (%)
- Treatment-Emergent Serious Adverse Events (TESAE) [13]: 0 n (%)
- Treatment-emergent adverse events (TEAE) [13]: 8 (25.8) n (%)
- Deaths [14]: 0 n (%)
- TEAE leading to treatment discontinuation [14]: 0 n (%)
- Treatment-Emergent Serious Adverse Events (TESAE) [14]: 0 n (%)
- Treatment-emergent adverse events (TEAE) [14]: 5 (16.1) n (%)
- participants with at least one treatment-related TEAE [15]: 12.9%
- participants with headache (most common TEAE) [15]: 6.5%
- participants with at least one treatment-related TEAE (after Treatment B2 (atogepant + rifampin)): 6.5%
- changes in clinical laboratory test results, vital signs, ECG findings (atogepant alone or with rifampin): no notable changes from baseline
- tolerability (atogepant and rifampin, healthy participants): well tolerated
- participants with at least one treatment-related TEAE [16]: 15.6%
- participants with mild TEAEs [16]: 31.3%
- participants with moderate TEAEs (during the study, after Treatment B1): 3.1%
- participants with treatment-related nausea (during the study, one after B1, one after B2): 6.3%
